Tested on: white blood cells contained in a whole blood sample
Test: MPO-releasing effects of various surfactants on whole blood, ELISA (Examples 3 to 5)
Format: cell-based, human
Conditions: Example 3 (Table 3): 500 μl blood + 500 μl 1% (w/v) surfactant solution, 60 minutes on ice, mean ± SD of 3
Procedure: 10 ml of healthy human whole blood was collected using a 28 G winged intravenous injection needle (manufactured and sold by Terumo Corporation, Japan), and immediately mixed with 10 mg of EDTA-2K (manufactured and sold by Dojin Laboratories, Japan), and the resultant EDTA-containing whole blood sample was subjected to the below-described various measurements within 1 hour from the blood collection.
500 μl of the blood was put in a 2-ml Eppendorf tube, and 500 μl of a 1% (w/v) aqueous surfactant solution was added to the tube, and the resultant mixture was stirred for 2 seconds by a Vortex mixer. Subsequently, the mixture was allowed to stand for 60 minutes on ice to thereby lyze the white blood cells. After the lysis of the white blood cells, 100 μl of the mixture was taken out and added to 900 μl of a PBS solution containing dissolved therein 1% BSA (trade name: “Sigma fraction V”, manufactured and sold under the brand of SIGMA™, U.S.A.). The resultant mixture was stirred by a Vortex mixer, and then 10 μl of the mixture was taken out and diluted 2,000-fold with 1% BSA/PBS solution. The resultant diluted mixture was subjected to a measurement by ELISA.
The outline of the ELISA is as follows. A 5 μg/ml PBS solution of an anti-MPO antibody was put into the wells of a Nunc Immuno Plate (manufactured and sold by Nalge Nunc International, Denmark) in an amount of 100 μl per well. The solution in each well was sealed and subjected to a reaction for 18 hours at 4° C. thereby immobilizing the primary antibody. The wells were washed with a washing solution (0.05% Tween™ 20/PBS) and then subjected to blocking for 1 hour at room temperature by using 200 μl of a blocking solution (1% BSA/PBS), and then washed twice with the washing solution. […] The wells were washed 5 times with a washing solution, and 100 μl of a just-prepared TMB solution (manufactured and sold by Kirkegaad & Perry Laboratories, U.S.A.) was added thereto to effect a color reaction. 2 Minutes after the start of the color reaction, 100 μl of a 1 N sulfuric acid solution (manufactured and sold by Nacalai Tesque, Inc., Japan) was added to the wells to thereby terminate the reaction. Then, the absorbance at 450 nm was measured by means of a plate reader (manufactured and sold by Bio-Rad Laboratories, U.S.A.).
With respect to the measurement of the MPO concentration of the sample, MPO (manufactured and sold by Elastin Products Co., INC., U.S.A.) was added to the sample so that the final concentration of the added MPO became 5 ng/ml or 10 ng/ml, and the resultant mixture was measured with respect to the MPO concentration. From the obtained value of MPO concentration, a calibration curve for each sample was obtained. The obtained calibration curve was corrected, based on its relationship with a calibration curve obtained with respect to a standard MPO solution, and the corrected calibration curve of each sample was used to determine the MPO concentration of the whole blood. The measurement was conducted 3 times, and a mean value±standard deviation was obtained.

α-[4-(1,1,3,3,-Tetramethylbutyl)phenyl]-ω-hydroxypoly(oxy-1,2-ethanediyl) [Triton ™ X-100]
MPO concentration of whole blood: 6.43 ± 1.25 µg/mL
